The test concerns the target T1, Human BCL-XL protein (N-terminal HiBiT tagged BCL-XL expressed in HT1080 cells) (Homo sapiens, UniProt Q07817).
T1 construct: expressed in transfected cells; host or cells: HT-1080 (ATCC CCL-121), stably transduced with lentivirus pLV-UBC-N-HiBiT-BCL-XL-PGK-puro and selected with puromycin
The test can be described thus: HiBiT Based Degradation Assay. The test is classed as cell-based. Conditions: 24 hours incubation; for DC50: BCL-XL degradation, HT1080 cells expressing N-HiBiT-BCL-XL, normalized with DMSO control, geometric mean for multiple data points, read-out: EC50 (24 h); for Ymin (24 h): bottom of BCL-XL degradation curve (remaining HiBiT-BCL-XL signal vs DMSO control), HT1080 cells. An excerpt: HiBiT Based Degradation Assay
Human BCL-XL protein coding open reading frame fused with N-terminal HiBiT coding sequence (N-HiBiT-BCL-XL) was synthesized from Integrated DNA Technologies (IDT). Next, N-HiBiT-BCL-XL sequence was cloned into pLV-UBC-PGK-Puro, a lentivirus plasmid purchased from Vectorbuilder, to generate pLV-UBC-N-HiBiT-BCL-XL-PGK-puro. Lentiviral particles were generated from Lenti-X™ 293T cells (Clontech) by co-transfection of pLV-UBC-N-HiBiT-BCL-XL-PGK-puro plasmids and lentiviral packaging plasmid mix (Cellecta). HT-1080 [HT1080](ATCC CCL-121™) cells were infected with the lentivirus, and HT1080 cells stably integrated with the lentiviral vector were established by incubation with 1 μg/mL puromycin (Thermofisher). HT1080 cells expressing N-terminal HiBiT tagged BCL-XL were dispensed into 384-well plates pre-spotted with compounds at varying concentrations. Three thousand cells were seeded into each well in 40 μL of RPMI 1640 media. After 24 hours of incubation at 37° C. with 5% CO2, 30 μL of the NANO-GLO® HiBiT Lytic Detection System working solution (Promega) was added to each well and incubated at room temperature for 30 min. After incubation, luminescence was read on a PHERAstar FSX Plate Reader (BMG). BCL-XL degradation at each indicated concentration was normalized with DMSO control. The BCL-XL degradation curves were plotted using a four-parameter logistic model. For compounds displaying hook effects, curve fitting was performed using bottom point of hook curves (i.e., the point of Ymin) as bottom plateau to calculate EC50. For compounds with multiple data points, the geometric mean is presented.

This note sets out measurements from US20260216170A1, “TETRAHYDROISOQUINOLINE HETEROBIFUNCTIONAL BCL-XL DEGRADERS” (Treeline Biosciences, Inc., priority 2023, published 2026).

Molecules are shown by their SMILES. Some results are limits rather than exact numbers.

T1 sequence (Q07817 whole entry): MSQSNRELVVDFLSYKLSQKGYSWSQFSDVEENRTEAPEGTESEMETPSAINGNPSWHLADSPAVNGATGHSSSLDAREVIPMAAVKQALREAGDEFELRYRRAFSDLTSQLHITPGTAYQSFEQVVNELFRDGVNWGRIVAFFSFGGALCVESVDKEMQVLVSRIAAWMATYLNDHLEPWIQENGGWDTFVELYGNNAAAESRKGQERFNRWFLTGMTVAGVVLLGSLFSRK

As for `Cc1c(OCC2CC3(CCN(CCNc4ccc5c(C6CCC(=O)NC6=O)nn(C)c5c4)CC3)C2)cccc1-c1ccc(N2CCc3cccc(C(=O)Nc4nc5ccccc5s4)c3C2)nc1C(=O)O` (stereo not drawn) [Compound 153, 6-[8-(1,3-benzothiazol-2-ylcarbamoyl)-3,4-dihydro-1H-isoquinolin-2-yl]-3-[3-[[7-[2-[[3-(2,6-dioxo-3-piperidyl)-1-methyl-indazol-6-yl]amino]ethyl]-7-azaspiro[3.5]nonan-2-yl]methoxy]-2-methyl-phenyl]pyridine-2-carboxylic acid], the DC50 is less than 10 nM and the “Ymin (24 h)” value was “A (Ymin < 30%)”.
The corresponding values for `Cc1c(NCCCC2CCN(CC(=O)Nc3ccc4c(C5CCC(=O)NC5=O)nn(C)c4c3)CC2)cccc1-c1ccc(N2CCc3cccc(C(=O)Nc4nc5ccccc5s4)c3C2)nc1C(=O)O` (stereo not drawn) [Compound 217] are less than 10 nM and “B (30% ≤ Ymin < 50%)”.
As to `Cn1nc(C2CCC(=O)NC2=O)c2ccc(NC(=O)CN3CCC(CCCOc4cccc(-c5ccc(N6CCc7cccc(C(=O)Nc8nc9ccccc9s8)c7C6)nc5C(=O)O)c4C(F)(F)F)CC3)c(F)c21` (stereo not drawn) [Compound 182], the DC50 is 10 to 100 nM and the “Ymin (24 h)” value is listed as “B (30% ≤ Ymin < 50%)”.
On to `Cn1nc(C2CCC(=O)NC2=O)c2ccc(NC(=O)CN3CCC(CCCOc4ccc(-c5ccc(N6CCc7cccc(C(=O)Nc8nc9ccccc9s8)c7C6)nc5C(=O)O)c(F)c4)CC3)c(F)c21` (stereo not drawn) [Compound 212, 6-(8-(benzo[d]thiazol-2-ylcarbamoyl)-3,4-dihydroisoquinolin-2(1H)-yl)-3-(4-(3-(1-(2-((3-(2,6-dioxopiperidin-3-yl)-7-fluoro-1-methyl-1H-indazol-6-yl)amino)-2-oxoethyl)piperidin-4-yl)propoxy)-2-fluorophenyl)picolinic acid], for which the DC50 is 10 to 100 nM and the “Ymin (24 h)” value is on record as “B (30% ≤ Ymin < 50%)”.
In the case of `Cn1nc(C2CCC(=O)NC2=O)c2ccc(NC(=O)CN3CCC4(CC3)CC(Oc3ccc(-c5ccc(N6CCc7cccc(C(=O)Nc8nc9ccccc9s8)c7C6)nc5C(=O)O)c(C(F)(F)F)c3)C4)c(F)c21` (stereo not drawn) [Compound 189], the DC50 is less than 10 nM and the “Ymin (24 h)” value was “B (30% ≤ Ymin < 50%)”.
As to `Cc1cc(OC[C@@H](C)CC2CCN(CC(=O)Nc3ccc4c(C5CCC(=O)NC5=O)nn(C)c4c3)CC2)ccc1-c1ccc(N2CCc3ccnc(C(=O)Nc4nc5ccccc5s4)c3C2)nc1C(=O)O` (single isomer, unassigned) [Compound 140b], the DC50 lay in the range of 10 to 100 nM and the “Ymin (24 h)” value is “A (Ymin < 30%)”.
On to `Cn1nc(C2CCC(=O)NC2=O)c2ccc(NC(=O)CN3CCC4(CC3)CC(COc3ccc(-c5ccc(N6CCc7ccnc(C(=O)Nc8nc9ccccc9s8)c7C6)nc5C(=O)O)c(C(F)(F)F)c3)C4)cc21` (stereo not drawn) [Compound 160, 6-[8-(1,3-benzothiazol-2-ylcarbamoyl)-3,4-dihydro-1H-2,7-naphthyridin-2-yl]-3-[4-[[7-[2-[[3-(2,6-dioxo-3-piperidyl)-1-methyl-indazol-6-yl]amino]-2-oxo-ethyl]-7-azaspiro[3.5]nonan-2-yl]methoxy]-2-(trifluoromethyl)phenyl]pyridine-2-carboxylic acid], for which the DC50 was less than 10 nM and the “Ymin (24 h)” value is reported as “B (30% ≤ Ymin < 50%)”.
The matching figures for `C[C@H](COc1ccc(-c2ccc(N3CCc4cccc(C(=O)Nc5nc6ccccc6s5)c4C3)nc2C(=O)O)c(C(F)(F)F)c1)CC1CCN(CC(=O)Nc2ccc3c(C4CCC(=O)NC4=O)nn(C)c3c2)CC1` (single isomer, unassigned) [Compound 130b]: 10 to 100 nM and “B (30% ≤ Ymin < 50%)”.
In the case of `C[C@H]1C[C@@H](CCCOc2cccc(-c3ccc(N4CCc5cccc(C(=O)Nc6nc7ccccc7s6)c5C4)nc3C(=O)O)c2C(F)(F)F)CCN1CC(=O)Nc1ccc2c(C3CCC(=O)NC3=O)nn(C)c2c1` (stereo partly drawn) [Compound 215b], the DC50 lay within 10 to 100 nM and the “Ymin (24 h)” value is on record as “B (30% ≤ Ymin < 50%)”.
The corresponding values for `COc1c(NC(=O)CN2CCC3(CC2)CC(Oc2ccc(-c4ccc(N5CCc6ccnc(C(=O)Nc7nc8ccccc8s7)c6C5)nc4C(=O)O)c(C(F)(F)F)c2)C3)ccc2c(C3CCC(=O)NC3=O)nn(C)c12` (stereo not drawn) [Compound 171, 6-(8-(benzo[d]thiazol-2-ylcarbamoyl)-3,4-dihydro-2,7-naphthyridin-2(1H)-yl)-3-(4-((7-(2-((3-(2,6-dioxopiperidin-3-yl)-7-methoxy-1-methyl-1H-indazol-6-yl)amino)-2-oxoethyl)-7-azaspiro[3.5]nonan-2-yl)oxy)-2-(trifluoromethyl)phenyl)picolinic acid] are 10 to 100 nM and “B (30% ≤ Ymin < 50%)”.
As for `Cc1c(OCCC[C@@H]2CCN(CC(=O)Nc3ccc4c(C5CCC(=O)NC5=O)nn(C)c4c3)[C@@H](C)C2)cccc1-c1ccc(N2CCc3cccc(C(=O)Nc4nc5ccccc5s4)c3C2)nc1C(=O)O` (stereo partly drawn) [Compound 208a], the DC50 was 10 to 100 nM and the “Ymin (24 h)” value is reported as “B (30% ≤ Ymin < 50%)”.
On to `COc1c(NC(=O)CN2CCC3(CC2)CC(COc2cccc(-c4ccc(N5CCc6cccc(C(=O)Nc7nc8ccccc8s7)c6C5)nc4C(=O)O)c2C)C3)ccc2c(C3CCC(=O)NC3=O)nn(C)c12` (stereo not drawn) [Compound 127], for which the DC50 was 10 to 100 nM and the “Ymin (24 h)” value was “A (Ymin < 30%)”.
As for `Cc1cc(OCCCC2(O)CCN(CC(=O)Nc3ccc4c(C5CCC(=O)NC5=O)nn(C)c4c3)CC2)ccc1-c1ccc(N2CCc3cccc(C(=O)Nc4nc5ccccc5s4)c3C2)nc1C(=O)O` (stereo not drawn) [Compound 107, 6-(8-(benzo[d]thiazol-2-ylcarbamoyl)-3,4-dihydroisoquinolin-2(1H)-yl)-3-(4-(3-(1-(2-((3-(2,6-dioxopiperidin-3-yl)-1-methyl-1H-indazol-6-yl)amino)-2-oxoethyl)-4-hydroxypiperidin-4-yl)propoxy)-2-methylphenyl)picolinic acid], the DC50 is less than 10 nM and the “Ymin (24 h)” value is “A (Ymin < 30%)”.
Consider `Cc1cc(NCCCC2CCN(CC(=O)Nc3ccc4c(C5CCC(=O)NC5=O)nn(C)c4c3)CC2)ccc1-c1ccc(N2CCc3cccc(C(=O)Nc4nc5ccccc5s4)c3C2)nc1C(=O)O` (stereo not drawn) [Compound 218], for which the DC50 is less than 10 nM and the “Ymin (24 h)” value is “A (Ymin < 30%)”.
Regarding `Cc1c(OCC[C@@H]2C[C@H]3CC[C@@H](C2)N3CC(=O)Nc2ccc3c(C4CCC(=O)NC4=O)nn(C)c3c2)cccc1-c1ccc(N2CCc3cccc(C(=O)Nc4nc5ccccc5s4)c3C2)nc1C(=O)O` (stereo partly drawn) [Compound 174a], the DC50 is less than 10 nM and the “Ymin (24 h)” value was “A (Ymin < 30%)”.
With `Cn1nc(C2CCC(=O)NC2=O)c2ccc(NC(=O)CN3CCC4(CCC(Oc5ccc(-c6ccc(N7CCc8cccc(C(=O)Nc9nc%10ccccc%10s9)c8C7)nc6C(=O)O)c(C(F)(F)F)c5)CC4)CC3)cc21` (stereo not drawn) [Compound 197], the DC50 was less than 10 nM and the “Ymin (24 h)” value is reported as “B (30% ≤ Ymin < 50%)”.
The matching figures for `C[C@@H]1CC(CCCOc2cccc(-c3ccc(N4CCc5cccc(C(=O)Nc6nc7ccccc7s6)c5C4)nc3C(=O)O)c2C(F)(F)F)CCN1CC(=O)Nc1ccc2c(C3CCC(=O)NC3=O)nn(C)c2c1` (stereo partly drawn) [Compound 215d]: 10 to 100 nM and “B (30% ≤ Ymin < 50%)”.
Take `COc1c(NC(=O)CN2CCC3(CC2)CC(Oc2cccc(-c4ccc(N5CCc6cccc(C(=O)Nc7nc8ccccc8s7)c6C5)nc4C(=O)O)c2C)C3)ccc2c(C3CCC(=O)NC3=O)nn(C)c12` (stereo not drawn) [Compound 164, 6-(8-(benzo[d]thiazol-2-ylcarbamoyl)-3,4-dihydroisoquinolin-2(1H)-yl)-3-(3-((7-(2-((3-(2,6-dioxopiperidin-3-yl)-7-methoxy-1-methyl-1H-indazol-6-yl)amino)-2-oxoethyl)-7-azaspiro[3.5]nonan-2-yl)oxy)-2-methylphenyl)picolinic acid]: the DC50 is 10 to 100 nM and the “Ymin (24 h)” value was “B (30% ≤ Ymin < 50%)”.
As for `Cc1cc(OC2CCC3(CC2)CCN(CC(=O)Nc2ccc4c(C5CCC(=O)NC5=O)nn(C)c4c2)CC3)ccc1-c1ccc(N2CCc3cccc(C(=O)Nc4nc5ccccc5s4)c3C2)nc1C(=O)O` (stereo not drawn) [Compound 221], the DC50 was less than 10 nM and the “Ymin (24 h)” value is reported as “A (Ymin < 30%)”.
`COc1c(NC(=O)CN2CC[C@@H](CCCOc3cccc(-c4ccc(N5CCc6ccnc(C(=O)Nc7nc8ccccc8s7)c6C5)nc4C(=O)O)c3C)C[C@@H]2C)ccc2c(C3CCC(=O)NC3=O)nn(C)c12` (stereo partly drawn) [Compound 216b]: the DC50 is less than 10 nM and the “Ymin (24 h)” value was “B (30% ≤ Ymin < 50%)”.
The corresponding values for `Cc1c(OCCC[C@@H]2C[C@H]3CC[C@@H](C2)N3CC(=O)Nc2ccc3c(C4CCC(=O)NC4=O)nn(C)c3c2)cccc1-c1ccc(N2CCc3cccc(C(=O)Nc4nc5ccccc5s4)c3C2)nc1C(=O)O` (stereo partly drawn) [Compound 175a] are less than 10 nM and “B (30% ≤ Ymin < 50%)”.
